Where a name gives a salt, the structure may show the parent alone.
The compounds below were run on SB.msgc-1 (assay: AC50 for growth inhibition (viability) (log10 M); higher = less potent). Settings: SB.msgc-1 (sporadic gastric cancer).
In short: (§1)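 In 1536-well plates, each well held 500 patient-derived gastric cancer cells (hereditary or sporadic) in 5 μL medium. Compound in DMSO, 23 nL per well, was pinned in 11 threefold dilutions starting at a final 46 μM. Following 48 h of exposure, cells had CellTiter-Glo for 30 min at room temperature before ViewLux luminescence reading. Only high-quality curve classes from four-parameter fits of DMSO-normalised viability gave the log half-maximal activity concentration.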

In order of falling “AC50 for growth inhibition (log10 M)” value:
1. Cc1c[nH]c(/C=C2\C(=O)Nc3ccccc32)c1CCC(=O)O [SU-5402]  -4.73
2. O=C1\C=C(OC2=C(C=CC=C12)C3=CC=CC4=C3SC5=C4C=CC=C5)\N6CCOCC6 [NU-7441]  -4.78
3. C[C@]12CC[C@H]3[C@@H](C\C=C/4C[C@@H](O)CC[C@]34C)[C@@H]1CCC2=O [Dehydroepiandrosterone]  -4.78
4. CC(O)(C#Cc1ccc2c(c1)N(c1nc(N)ncc1Cl)CC2)c1nccs1 (centres undefined)  -4.88
5. CNC(=O)[C@H](Cc1ccccc1)NC(=O)[C@H](CC(C)C)[C@H](CSc1cccs1)C(=O)NO [Batimastat]  -4.93
6. Cc1[nH]c(/C=C2\C(=O)Nc3ccccc32)c(C)c1CCC(=O)O [Orantinib]  -5.13
7. CN(C)Cc1cccc(N/C(=C2\C(=O)Nc3cc(C(=O)N(C)C)ccc32)c2ccccc2)c1  -5.23
8. COc1c(Cl)cc2c([nH]c3cnccc32)c1NC(=O)c1cccnc1C [MLN-120B]  -5.23
9. COc1cc2c(cc1-c1c(C)noc1C)ncc1[nH]c(=O)n([C@H](C)c3ccccn3)c12 [I-BET151]  -5.28
10. O=C(CCCCCCC(=O)Nc1cccnc1)NO [Pyroxamide]  -5.33
11. C[C@H]1O[C@H]([C@H](O)[C@@H]1O)N2\C=C(F)/C(=O)NC2=O [Doxifluridine]  -5.33
12. COc1ccc(C[C@@H](C)[C@@H](C)Cc2ccc(OC)c(OC)c2)cc1OC [Terameprocol]  -5.43
13. CCc1cc(-c2n[nH]c(C)c2-c2ccc3c(c2)OCCO3)c(O)cc1O  -5.68
14. CN(C)C1=CC=C(C=C1)C(C2=CC=C(C=C2)N(C)C)=C/3\C=C/C(/C=C3)=[N+](C)C [Methylrosaniline chloride]  -5.78
15. CCC(c1ccc(O)cc1)C(CC)c1ccc(O)cc1 (centres undefined) [Hexestrol]  -5.88
16. CSC1=CC(=CC=C1)NC2=NC3=C(C=N2)/C=C(C(=O)N3C)/C4=C(Cl)C=CC=C4Cl  -5.93
17. CN(C)Cc1c(C(=O)NCCOc2ccc(C(=O)NO)cc2)oc2ccccc12 [Abexinostat]  -5.93
18. CCN(CC)Cc1ccc2cc(COC(=O)Nc3ccc(C(=O)NO)cc3)ccc2c1 [Givinostat hydrochloride]  -6.03
19. CO[C@@H]1[C@@H](O)[C@H](O)[C@@H](n2c3c(Cl)cccc3c3c4c(c5c6cccc(Cl)c6[nH]c5c32)C(=O)NC4=O)O[C@H]1CO [Rebeccamycin]  -6.43
20. CC(=O)[C@]1(O)Cc2c(O)c3c(c(O)c2[C@@H](O[C@H]2C[C@H](N)[C@H](O)[C@H](C)O2)C1)C(=O)c1ccccc1C3=O [Idarubicin hydrochloride]  -6.63
21. COc1cc2ncnc(Nc3ccc(F)c(Cl)c3)c2cc1OCCCN1CCOCC1 [Gefitinib]  -6.67
22. CC(C)C[C@H](NC(=O)CNC(=O)c1cc(Cl)ccc1Cl)B1OC(=O)CC(CC(=O)O)(C(=O)O)O1 (some centres undefined) [Ixazomib citrate]  -7.23

These compounds were tested on SB.mhdgc-1 in the same assay as above. Settings: SB.mhdgc-1 (hereditary c.1380delA CDH1 gastric cancer).
In short: as §1

In order of rising “AC50 for growth inhibition (log10 M)” value:
1. CC(=O)[C@]1(O)Cc2c(O)c3c(c(O)c2[C@@H](O[C@H]2C[C@H](N)[C@H](O)[C@H](C)O2)C1)C(=O)c1ccccc1C3=O [Idarubicin hydrochloride]  -7.38
2. CC(C)C[C@H](NC(=O)CNC(=O)c1cc(Cl)ccc1Cl)B1OC(=O)CC(CC(=O)O)(C(=O)O)O1 (some centres undefined) [Ixazomib citrate]  -7.03
3. CO[C@@H]1[C@@H](O)[C@H](O)[C@@H](n2c3c(Cl)cccc3c3c4c(c5c6cccc(Cl)c6[nH]c5c32)C(=O)NC4=O)O[C@H]1CO [Rebeccamycin]  -6.83
4. Cc1[nH]c(/C=C2\C(=O)Nc3ccccc32)c(C)c1CCC(=O)O [Orantinib]  -6.48
5. C[C@H]1O[C@H]([C@H](O)[C@@H]1O)N2\C=C(F)/C(=O)NC2=O [Doxifluridine]  -6.18
6. CN(C)C1=CC=C(C=C1)C(C2=CC=C(C=C2)N(C)C)=C/3\C=C/C(/C=C3)=[N+](C)C [Methylrosaniline chloride]  -6.03
7. CCC(c1ccc(O)cc1)C(CC)c1ccc(O)cc1 (centres undefined) [Hexestrol]  -5.88
8. COc1c(Cl)cc2c([nH]c3cnccc32)c1NC(=O)c1cccnc1C [MLN-120B]  -5.83
9. CSC1=CC(=CC=C1)NC2=NC3=C(C=N2)/C=C(C(=O)N3C)/C4=C(Cl)C=CC=C4Cl  -5.78
10. C[C@]12CC[C@H]3[C@@H](C\C=C/4C[C@@H](O)CC[C@]34C)[C@@H]1CCC2=O [Dehydroepiandrosterone]  -5.78
11. COc1cc2ncnc(Nc3ccc(F)c(Cl)c3)c2cc1OCCCN1CCOCC1 [Gefitinib]  -5.57
12. O=C(CCCCCCC(=O)Nc1cccnc1)NO [Pyroxamide]  -5.53
13. CCc1cc(-c2n[nH]c(C)c2-c2ccc3c(c2)OCCO3)c(O)cc1O  -5.53
14. CN(C)Cc1cccc(N/C(=C2\C(=O)Nc3cc(C(=O)N(C)C)ccc32)c2ccccc2)c1  -5.48
15. CCN(CC)Cc1ccc2cc(COC(=O)Nc3ccc(C(=O)NO)cc3)ccc2c1 [Givinostat hydrochloride]  -5.38
16. COc1ccc(C[C@@H](C)[C@@H](C)Cc2ccc(OC)c(OC)c2)cc1OC [Terameprocol]  -5.18
17. CN(C)Cc1c(C(=O)NCCOc2ccc(C(=O)NO)cc2)oc2ccccc12 [Abexinostat]  -5.13
18. COc1cc2c(cc1-c1c(C)noc1C)ncc1[nH]c(=O)n([C@H](C)c3ccccn3)c12 [I-BET151]  -4.93
19. CC(O)(C#Cc1ccc2c(c1)N(c1nc(N)ncc1Cl)CC2)c1nccs1 (centres undefined)  -4.73
20. Cc1c[nH]c(/C=C2\C(=O)Nc3ccccc32)c1CCC(=O)O [SU-5402]  -4.68
21. CNC(=O)[C@H](Cc1ccccc1)NC(=O)[C@H](CC(C)C)[C@H](CSc1cccs1)C(=O)NO [Batimastat]  -4.68
22. O=C1\C=C(OC2=C(C=CC=C12)C3=CC=CC4=C3SC5=C4C=CC=C5)\N6CCOCC6 [NU-7441]  -4.68
